Measured values reported in ChEMBL document CHEMBL1201862, “PubChem BioAssay data set” (2004).
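The compound was tested at five concentrations on cells cultured in 96-well plates, with a 48-hour exposure period. At the GI50, growth is halved.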 Activity calls are given as the source filed them. Rule as the data show it: active = GI50 up to about 1.1 µM and inactive = higher.

Experiments:
Experiment in all cases: NCI tumour cell line growth inhibition, 48 h
TK-10 = tested on: TK-10
Malme-3M = tested on: Malme-3M
MOLT-4 = tested on: MOLT-4
KM12 = tested on: KM12
OVCAR-5 = tested on: OVCAR-5
EKVX = tested on: EKVX
NCI-H226 = tested on: NCI-H226
RXF 393 = tested on: RXF 393
IGROV-1 = tested on: IGROV-1
SN12C = tested on: SN12C
K562 = tested on: K562
HL-60 = tested on: HL-60
SK-OV-3 = tested on: SK-OV-3
OVCAR-4 = tested on: OVCAR-4
UACC-62 = tested on: UACC-62
SF-539 = tested on: SF-539
NCI-H23 = tested on: NCI-H23
LOX IMVI = tested on: LOX IMVI

N#C/C(=C\c1cc(O)ccc1O)C(N)=O
GI50 (TK-10): 50.8 µM (inactive) | GI50 (Malme-3M): 74 µM (inactive) | GI50 (MOLT-4): 27 µM (inactive) | GI50 (KM12): 46.1 µM (inactive) | GI50 (OVCAR-5): > 100 µM (inactive) | GI50 (EKVX): 33.1 µM (inactive) | GI50 (NCI-H226): 34 µM (inactive) | GI50 (RXF 393): 19 µM (inactive) | GI50 (IGROV-1): 99.5 µM (inactive) | GI50 (SN12C): 50.4 µM (inactive) | GI50 (K562): 27 µM (inactive) | GI50 (HL-60): 14 µM (inactive) | GI50 (SK-OV-3): 67.6 µM (inactive) | GI50 (OVCAR-4): 54 µM (inactive) | GI50 (UACC-62): 30.4 µM (inactive) | GI50 (SF-539): 50.7 µM (inactive) | GI50 (NCI-H23): 36.2 µM (inactive)

COC12OCCN(C)C1=CC(=O)C1=NNC(C)C12 (stereo not given)
GI50 (TK-10): > 100 µM (inactive) | GI50 (LOX IMVI): > 100 µM (inactive) | GI50 (MOLT-4): > 100 µM (inactive) | GI50 (KM12): > 100 µM (inactive) | GI50 (EKVX): > 100 µM (inactive) | GI50 (NCI-H226): > 100 µM (inactive) | GI50 (RXF 393): > 100 µM (inactive) | GI50 (IGROV-1): > 100 µM (inactive) | GI50 (SN12C): > 100 µM (inactive) | GI50 (K562): > 100 µM (inactive) | GI50 (HL-60): > 100 µM (inactive) | GI50 (SK-OV-3): > 100 µM (inactive) | GI50 (UACC-62): > 100 µM (inactive) | GI50 (SF-539): > 100 µM (inactive) | GI50 (NCI-H23): > 100 µM (inactive)

COC1=CC(c2ccc(Br)[nH]2)=N/C1=C/NCC(C)C
GI50 (TK-10): 2.55 µM (inactive) | GI50 (Malme-3M): 1.75 µM (inactive) | GI50 (MOLT-4): 1.33 µM (inactive) | GI50 (KM12): 1.26 µM (inactive) | GI50 (OVCAR-5): 2.11 µM (inactive) | GI50 (EKVX): 0.368 µM (active) | GI50 (IGROV-1): 2.37 µM (inactive) | GI50 (SN12C): 2.21 µM (inactive) | GI50 (K562): 2.65 µM (inactive) | GI50 (HL-60): 1.39 µM (inactive) | GI50 (SK-OV-3): 2.53 µM (inactive) | GI50 (OVCAR-4): 1.86 µM (inactive) | GI50 (UACC-62): 1.98 µM (inactive) | GI50 (SF-539): 2.06 µM (inactive) | GI50 (NCI-H23): 1.58 µM (inactive)

Clc1ccc(C2SCc3nc4ccccc4n32)c(Cl)c1 (stereo not given)
GI50 (TK-10): 14.4 µM (inactive) | GI50 (Malme-3M): 17.7 µM (inactive) | GI50 (LOX IMVI): 15.3 µM (inactive) | GI50 (MOLT-4): 14.1 µM (inactive) | GI50 (KM12): 14.7 µM (inactive) | GI50 (OVCAR-5): 16.2 µM (inactive) | GI50 (EKVX): 11.6 µM (inactive) | GI50 (NCI-H226): 14.8 µM (inactive) | GI50 (RXF 393): 15.1 µM (inactive) | GI50 (IGROV-1): 15.5 µM (inactive) | GI50 (SN12C): 14.6 µM (inactive) | GI50 (K562): 11 µM (inactive) | GI50 (HL-60): 8.22 µM (inactive) | GI50 (SK-OV-3): 25.8 µM (inactive) | GI50 (UACC-62): 17.7 µM (inactive) | GI50 (SF-539): 17.5 µM (inactive) | GI50 (NCI-H23): 11.3 µM (inactive)

O=C(O)c1cc(S(=O)(=O)N/N=C\c2c3ccccc3[n+]([O-])c3ccccc23)ccc1O
GI50 (TK-10): 17.8 µM (inactive) | GI50 (Malme-3M): 17.7 µM (inactive) | GI50 (LOX IMVI): 8 µM (inactive) | GI50 (MOLT-4): 3.8 µM (inactive) | GI50 (KM12): 23.8 µM (inactive) | GI50 (OVCAR-5): 30.7 µM (inactive) | GI50 (EKVX): 44.4 µM (inactive) | GI50 (NCI-H226): 26.7 µM (inactive) | GI50 (IGROV-1): 22.1 µM (inactive) | GI50 (SN12C): 17.9 µM (inactive) | GI50 (K562): 8.61 µM (inactive) | GI50 (HL-60): 4.07 µM (inactive) | GI50 (SK-OV-3): 38.3 µM (inactive) | GI50 (OVCAR-4): 5.18 µM (inactive) | GI50 (UACC-62): 8.69 µM (inactive) | GI50 (NCI-H23): 8.04 µM (inactive)

CCc1ccc(Cc2ccc(CC)c(NC(=O)C(=O)Cc3nc4ccccc4nc3C)c2CC)c(CC)c1NC(=O)C(=O)Cc1nc2ccccc2nc1C
GI50 (TK-10): > 100 µM (inactive) | GI50 (Malme-3M): 81.3 µM (inactive) | GI50 (LOX IMVI): > 100 µM (inactive) | GI50 (MOLT-4): 40.6 µM (inactive) | GI50 (KM12): > 100 µM (inactive) | GI50 (OVCAR-5): > 100 µM (inactive) | GI50 (EKVX): 45.9 µM (inactive) | GI50 (RXF 393): 41.4 µM (inactive) | GI50 (IGROV-1): > 100 µM (inactive) | GI50 (K562): > 100 µM (inactive) | GI50 (HL-60): > 100 µM (inactive) | GI50 (SK-OV-3): > 100 µM (inactive) | GI50 (OVCAR-4): 72.3 µM (inactive) | GI50 (UACC-62): > 100 µM (inactive) | GI50 (SF-539): 36.8 µM (inactive) | GI50 (NCI-H23): > 100 µM (inactive)

CN(C)/N=N/c1c[nH]nc1C(N)=O
GI50 (TK-10): > 100 µM (inactive) | GI50 (Malme-3M): > 100 µM (inactive) | GI50 (LOX IMVI): 53.1 µM (inactive) | GI50 (MOLT-4): > 100 µM (inactive) | GI50 (KM12): > 100 µM (inactive) | GI50 (OVCAR-5): > 100 µM (inactive) | GI50 (EKVX): > 100 µM (inactive) | GI50 (NCI-H226): > 100 µM (inactive) | GI50 (IGROV-1): > 100 µM (inactive) | GI50 (SN12C): > 100 µM (inactive) | GI50 (K562): 54.8 µM (inactive) | GI50 (HL-60): > 100 µM (inactive) | GI50 (SK-OV-3): > 100 µM (inactive) | GI50 (OVCAR-4): > 100 µM (inactive) | GI50 (UACC-62): 16.2 µM (inactive) | GI50 (SF-539): > 100 µM (inactive) | GI50 (NCI-H23): > 100 µM (inactive)

CCOC(=O)C(Cc1ccccc1)NC(=O)c1nc[nH]c1/N=N/N(C)C (stereo not given)
GI50 (TK-10): > 10 µM (inactive) | GI50 (Malme-3M): > 100 µM (inactive) | GI50 (LOX IMVI): > 100 µM (inactive) | GI50 (MOLT-4): > 100 µM (inactive) | GI50 (KM12): > 100 µM (inactive) | GI50 (OVCAR-5): > 100 µM (inactive) | GI50 (EKVX): > 100 µM (inactive) | GI50 (NCI-H226): > 100 µM (inactive) | GI50 (IGROV-1): > 100 µM (inactive) | GI50 (SN12C): > 100 µM (inactive) | GI50 (K562): > 100 µM (inactive) | GI50 (HL-60): > 100 µM (inactive) | GI50 (SK-OV-3): > 100 µM (inactive) | GI50 (OVCAR-4): > 100 µM (inactive) | GI50 (UACC-62): > 100 µM (inactive) | GI50 (SF-539): > 100 µM (inactive) | GI50 (NCI-H23): > 100 µM (inactive)
